{
  "source": "patent US6107059A",
  "about": "“Peptide library and screening method” (Affymax Technologies N.V., priority 1992, dated 2000)",
  "origin": "cited, not measured here",
  "target": "streptavidin (Streptomyces avidinii, UniProt P22629)",
  "sequence (P22629 25-183)": "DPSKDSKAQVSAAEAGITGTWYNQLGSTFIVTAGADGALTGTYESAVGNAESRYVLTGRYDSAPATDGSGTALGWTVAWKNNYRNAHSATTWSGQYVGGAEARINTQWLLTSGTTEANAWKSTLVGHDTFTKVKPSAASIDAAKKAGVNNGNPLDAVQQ",
  "details": "comparison in words, no number given",
  "data": [
    {"smiles": "N=C1N[C@H]2[C@H](CS[C@H]2CCCCC(=O)O)N1", "note": "[iminobiotin]", "values": [
      {"measurement": "Kd for streptavidin, compared with biotin", "result": "much lower Kd"}
    ]}
  ]
}
